Patent US11564913B2, “Compositions and methods for treating cancer” (Children's Hospital Medical Center, priority 2019, dated 2023)

Legend:
[1] = test system: pPAK4(S474)/pPAK5(S602)/PAK6(S560) in MDA-MB-231 cells; experiment: pPAK immunoblot; format: cell-based, human; conditions: 0.3 and 1 μM, up to 3 h incubation
[2] = test system: Rac1Δ/Δ+Rac2−/− murine leukemic cells expressing p190-BCR-ABL; experiment: Clonogenic ability of Rac-deficient leukemic cells; format: cell-based; conditions: 1 μM
Protocol: FIG. 13: IODVA1 decreases Rac activation and signaling. (A) Ba/F3 cells expressing p190-BCR-ABL1 were treated with IODVA1 (3 μM) as indicated and levels of active Rac (Rac-GTP) were assessed by pull-down using GST-PAK-GBD, followed by immunoblotting (upper panel) and densitometric quantification (lower panel). (B) Flow-cytometry analysis of pJNK, pS6, p4EBP, pPAK1, and pAKT of Ba/F3 cells expressing Mieg3 empty vector (light and dark blue) or p190-BCR-ABL1 (light and dark salmon) and treated with vehicle control or IODVA1 (3 μM) for 30 min. (C) Representative histogram data of the cell cycle analysis of Ba/F3 cells expressing p190-BCR-ABL and treated with vehicle control or IODVA1 (1, 3, and 10 μM) for 20 h. (D) Quantification of the average number of colonies of bone marrow wild-type (black) and Rac1^Δ/Δ+Rac2^−/− (red) p190-BCR-ABL1 leukemic cells treated with vehicle control or IODVA1 (IO1, 1 μM). ns—not significant, * p<0.05, ** p<0.01, *** p<0.001. […] (G) Ba/F3 cells expressing p190-BCR-ABL1 were treated with IODVA1 (3 μM) and levels of active Cdc42 (Cdc42-GTP) and Rho (Rho-GTP) were assessed by pull-down at the indicated times using GST-PAK-GBD and GST-Rhotekin respectively, followed by immunoblotting (left panel) and densitometric quantification (right panel). […]
To confirm that IODVA1 targets Rac-dependent pathways, we assessed its effects in a Rac2-null background. […]

[3] = test system: Vav3−/− p190-BCR-ABL leukemia; experiment: Vav3−/− p190-BCR-ABL leukemic mice, osmotic pumps; format: in vivo
Protocol: FIG. 14: IODVA1 targets Vav3 in vitro and in vivo. (A) Ba/F3 cells expressing empty vector Mieg3 or p190-BCR-ABL1 were treated with vehicle control or IODVA1 (IO1, 3 μM) for 30 min and incubated with GST-Rac and glutathione beads. Beads were washed and the protein complexes were separated on SDS-PAGE and immunoblotted for pVav3. Input Vav3 was used as control. (B) Binding affinity (Kd) between IODVA1 and Vav3 (green), LARG (brown), and RacGDP (blue). […] Error bars=SD; N=3. (C) Quantification of the average number of colonies made by bone marrow wild-type (black) and Vav3^−/− (lilac) p190-BCR-ABL1 leukemic cells treated with vehicle control or IODVA1 (IO1, 1 and 3 μM) (* p≤0.05; ** p≤0.01; *** p≤0.001; ns, not significant). (D) Representative histogram data of the cell cycle analysis of wild-type (black and grey bars) and Vav3^−/− (dark and light lilac) bone marrow cells expressing p190-BCR-ABL and treated with vehicle control or IODVA1 (IO1, 3 μM) for 20 h. (E) Quantification by densitometry of the pVav3 band from FIG. 14A. (F) Kaplan-Meier plot showing survival of wild-type or Vav3^−/− p190-BCR-ABL1 leukemic mice post-treatment with osmotic pumps implanted subcutaneously and carrying vehicle control or IODVA1 (IO1, 1 mM). (G) Count (% leukemic progenitors in peripheral blood) of residual leukemic (EGFP^+-BCR-ABL1) cells at week 1 and 2 post-treatment for mice from (F). […]

OC1(c2ccccn2)N=C(Nc2nc3ccccc3[nH]2)N=C1c1ccccn1 (stereo not drawn) [IODVA1, (Z)-2-((1H-benzo[d]imidazol-2-yl)imino)-4,5-di(pyridin-2-yl)-2,5-dihydro-1H-imidazol-5-ol]
levels of pPAK4/5/6 [1]: did not change | number of colonies formed [2]: did not alter | response (survival) of Vav3−/− leukemic mice [3]: did not respond
